Paper PMC7579906, “Discovery of a dual inhibitor of NQO1 and GSTP1 for treating glioblastoma” (Journal of Hematology & Oncology, 2020)

What was measured:
U87MG/EGFRvIII cells = assay: Cell proliferation (MTT) assay, U87MG/EGFRvIII; type: cell-based, human; conditions: Homo sapiens, U-87 MG; inhibition of cell proliferation/viability; MNPC treated 72 h
Description: (§1) The human glioblastoma cell line U87MG was stably transfected with vector control, pLHCX-EGFRvIII, pGFP-NQO1 and pRS-GSTP1, which were supplemented with various antibiotics. For EGFRvIII, 150 μg/mL of hygromycin was used; for pGFP-NQO1 and pRS-GSTP1, 0.7 μg/mL of puromycin was employed. The cells were supplemented with 10% fetal bovine serum (Hyclone, USA), penicillin (100 U/ml) and streptomycin (100 U/ml) (ABAM Life Technologies, USA) in a humidified incubator with 5% CO2 at 37 °C.
(§2) In vitro assessment was implemented for cell proliferation using the 3-(4, 5- dimethylthiazol- 2-yl)-2,5-diphenyltetrazolium bromide (MTT) assay. After different treatments with specific time periods, 10 μL of MTT (5 mg/mL in PBS, Sigma, USA) was added to each well and the plates were incubated for 3 h at 37 °C. The resulting formazan product was dissolved with DMSO. The absorbance at a wavelength of 490 nm was recorded using a microplate reader (BioTek Instruments Inc., USA).

U87MG cells = assay: Cell proliferation (MTT) assay, parental U87MG; type: cell-based; conditions: Homo sapiens, U-87 MG, inhibition of cell proliferation/viability
Description: as §1, §2

IC50 (U87MG/EGFRvIII cells) [µM]	SMILES	IC50 (U87MG cells) [µM]
19.4	CC(=O)Oc1ccccc1C(=O)Nc1ncc([N+](=O)[O-])s1 [NTZ, nitazoxanide, reference compound]	66.7
22.4	O=C(Nc1ncc([N+](=O)[O-])s1)c1ccccc1O [TIZ, tizoxanide, reference compound]	82.9
1.67	Cc1ccc(C)c(-c2csc(NC(=O)c3ccc(-c4ccccc4)cc3)n2)c1 [Compound 21]	16.6
1.34	Cc1ccc(-c2csc(NC(=O)c3cccc4ccccc34)n2)c(C)c1 [Compound 24]	24.5
2.22	CCc1cc(C(=O)Nc2nc(-c3ccc(C)c(C)c3)c(C)s2)cs1 [Compound 23]	29.1
2.42	Cc1ccc(C(=O)Nc2nc(-c3ccccc3)c(C)s2)cc1 [Compound 22]	11.2
